Laboratory results published in patent publication US20240101570A1 (AMGEN INC., priority 2020, published 2024).

Columns and labels:
[1] = tested on: HCT116 WT cells; experiment: HCT116 WT cell proliferation / viability (CellTiter-Glo, 6 days); format: cell-based; settings: Homo sapiens, HCT-116, 144 h, HCT116 WT cells, 6 days, CellTiter-Glo; read-out: HCT-116 WT IC50
How it was run: (§1)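 CellTiter-Glo luminescence, 6-day exposure, RPMI 1640 + 10% FBS. Dosing: 1:3 series (8-9 pts, top 1 or 10 μM) or 1:2 series (22 pts, top 10 or 50 μM), DMSO control. IC50 = 50% of control via curve fit.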

[2] = tested on: HCT116 MTAP null cells; experiment: HCT116 MTAP null cell proliferation / viability (CellTiter-Glo, 6 days); format: cell-based; settings: HCT116-MTAP null, 144 h, HCT116 MTAP null cells, 6 days, CellTiter-Glo; read-out: HCT-116 MTAP null IC50
How it was run: as §1

Compound | IC50 [1] [µM] | IC50 [2] [µM]
CC1(CN(Cc2ccc(C(F)(F)F)cn2)C(=O)c2cc3c4c(c(N)nc3cn2)COC4)CC1 [Example 398, 4-amino-N-((1-methylcyclopropyl)methyl)-N-((5-(trifluoromethyl)-2-pyridinyl)methyl)-1,3-dihydrofuro[3,4-c][1,7]naphthyridine-8-carboxamide] | 1.39 | 0.049
CN(Cc1ccc(C(F)(F)F)cc1)C(=O)c1ccc2nc(N)c3c(c2c1)COC3 [Example 399, 4-amino-N-methyl-N-(4-(trifluoromethyl)benzyl)-1,3-dihydrofuro[3,4-c]quinoline-8-carboxamide] | 4.43 | 0.393
CN(Cc1ccc(C(F)(F)F)nc1)C(=O)c1ccc2nc(N)c3c(c2c1)COC3 [Example 400, 4-amino-N-methyl-N-((6-(trifluoromethyl)-3-pyridinyl)methyl)-1,3-dihydrofuro[3,4-c]quinoline-8-carboxamide] | > 10 | 0.97
CC(C)N(Cc1ccc(C2CC2)nc1)C(=O)c1cc2c3c(c(N)nc2cc1Cl)COC3 [Example 401, 4-amino-7-chloro-N-((6-cyclopropyl-3-pyridinyl)methyl)-N-(2-propanyl)-1,3-dihydrofuro[3,4-c]quinoline-8-carboxamide] | 3.08 | 0.084
CC(C)N(Cc1ccc(C2CC2)nc1)C(=O)c1cc2c3c(c(N)nc2cn1)[C@H](C)OC3 [Example 403, (3S)-4-amino-N-((6-cyclopropyl-3-pyridinyl)methyl)-3-methyl-N-(2-propanyl)-1,3-dihydrofuro[3,4-c][1,7]naphthyridine-8-carboxamide] | > 10 | ≥ 10
CC(C)N(Cc1ccc(C#N)cn1)C(=O)c1cc2c3c(c(N)nc2cn1)[C@@H](C)OC3 [Example 404, (3R)-4-amino-N-((5-cyano-2-pyridinyl)methyl)-3-methyl-N-(2-propanyl)-1,3-dihydrofuro[3,4-c][1,7]naphthyridine-8-carboxamide] | 11.4 | 0.18
C[C@H]1OCc2c1c(N)nc1cnc(C(=O)N(Cc3ccc(C(F)(F)F)nn3)C3CC3)cc21 [Example 405, (3R)-4-amino-N-cyclopropyl-3-methyl-N-((6-(trifluoromethyl)-3-pyridazinyl)methyl)-1,3-dihydrofuro[3,4-c][1,7]naphthyridine-8-carboxamide] | > 10 | 0.362
CC(C)N(Cc1ccc(C2CC2)cn1)C(=O)c1cc2c3c(c(N)nc2cn1)[C@@H](C)OC3 [Example 406, (3R)-4-amino-N-((5-cyclopropyl-2-pyridinyl)methyl)-3-methyl-N-(2-propanyl)-1,3-dihydrofuro[3,4-c][1,7]naphthyridine-8-carboxamide] | 4.13 | 0.097
CC(C)N(Cc1ccc(C2CC2)cn1)C(=O)c1cc2c3c(c(N)nc2cn1)[C@H](C)OC3 [Example 407, (3S)-4-amino-N-((5-cyclopropyl-2-pyridinyl)methyl)-3-methyl-N-(2-propanyl)-1,3-dihydrofuro[3,4-c][1,7]naphthyridine-8-carboxamide] | > 10 | 3.66
CCN(Cc1ccc(C(F)(F)F)cn1)C(=O)c1cc2c3c(c(N)nc2cn1)[C@@H](C)OC3 [Example 408, (3R)-4-amino-N-ethyl-3-methyl-N-((5-(trifluoromethyl)-2-pyridinyl)methyl)-1,3-dihydrofuro[3,4-c][1,7]naphthyridine-8-carboxamide] | 3.35 | 0.086
CCOc1ccc(CN(C(=O)c2cc3c4c(c(N)nc3cn2)[C@@H](C)OC4)C23CC(C2)C3)nn1 [Example 409, (3R)-4-amino-N-(bicyclo[1.1.1]pentan-1-yl)-N-((6-ethoxy-3-pyridazinyl)methyl)-3-methyl-1,3-dihydrofuro[3,4-c][1,7]naphthyridine-8-carboxamide] | 5.87 | 0.056
COC[C@@H](C)N(Cc1ccc(Br)nn1)C(=O)c1cc2c3c(c(N)nc2cn1)[C@@H](C)OC3 [Example 410, (3R)-4-amino-N-((6-bromo-3-pyridazinyl)methyl)-N-((2R)-1-methoxy-2-propanyl)-3-methyl-1,3-dihydrofuro[3,4-c][1,7]naphthyridine-8-carboxamide] | 3.25 | 0.087
C[C@H]1OCc2c1c(N)nc1cnc(C(=O)N(C)Cc3ccc(C(F)(F)F)cn3)cc21 [Example 411, (3R)-4-amino-N,3-dimethyl-N-((5-(trifluoromethyl)-2-pyridinyl)methyl)-1,3-dihydrofuro[3,4-c][1,7]naphthyridine-8-carboxamide] | 13.6 | 0.181
CC(C)N(Cc1ccc(C2CC2)nc1)C(=O)c1cc2c3c(c(N)nc2cn1)[C@@H](C)OC3 [Example 412, (3R)-4-amino-N-((6-cyclopropyl-3-pyridinyl)methyl)-3-methyl-N-(2-propanyl)-1,3-dihydrofuro[3,4-c][1,7]naphthyridine-8-carboxamide] | 25.6 | 0.397
COC(=O)N1CCN(c2ccc(CN(C)C(=O)c3ccc4nc(N)c5c(c4c3)COC5)nc2)CC1 [Example 413, methyl 4-(6-((((4-amino-1,3-dihydrofuro[3,4-c]quinolin-8-yl)carbonyl)(methyl)amino)methyl)-3-pyridinyl)-1-piperazinecarboxylate] | 20.3 | 0.87
C[C@@H]1OCc2c1c(N)nc1cnc(C(=O)N(C)Cc3ccc(C4CC4)cn3)cc21 [Example 414, (3S)-4-amino-N-((5-cyclopropyl-2-pyridinyl)methyl)-N,3-dimethyl-1,3-dihydrofuro[3,4-c][1,7]naphthyridine-8-carboxamide] | > 50 | 5.87
C[C@H]1OCc2c1c(N)nc1cnc(C(=O)N(C)Cc3ccc(C4CC4)cn3)cc21 [Example 415, (3R)-4-amino-N-((5-cyclopropyl-2-pyridinyl)methyl)-N,3-dimethyl-1,3-dihydrofuro[3,4-c][1,7]naphthyridine-8-carboxamide] | 25.1 | 0.449
C[C@H]1OCc2c1c(N)nc1cnc(C(=O)N(Cc3ccc(C4CC4)cn3)C3CC3)cc21 [Example 416, (3R)-4-amino-N-cyclopropyl-N-((5-cyclopropyl-2-pyridinyl)methyl)-3-methyl-1,3-dihydrofuro[3,4-c][1,7]naphthyridine-8-carboxamide] | 8.23 | 0.062
C[C@@H]1OCc2c1c(N)nc1cnc(C(=O)N(Cc3ccc(C4CC4)cn3)C3CC3)cc21 [Example 417, (3S)-4-amino-N-cyclopropyl-N-((5-cyclopropyl-2-pyridinyl)methyl)-3-methyl-1,3-dihydrofuro[3,4-c][1,7]naphthyridine-8-carboxamide] | 17.6 | 5.61
Nc1nc2cnc(C(=O)N(Cc3ccc(OC(F)F)nn3)CC3CC3)cc2c2c1COC2 [Example 418, 4-amino-N-(cyclopropylmethyl)-N-((6-(difluoromethoxy)-3-pyridazinyl)methyl)-1,3-dihydrofuro[3,4-c][1,7]naphthyridine-8-carboxamide] | 6.34 | 0.171
CCN(Cc1ccc(C(F)(F)F)cn1)C(=O)c1cc2c3c(c(N)nc2cc1F)COC3 [Example 419, 4-amino-N-ethyl-7-fluoro-N-((5-(trifluoromethyl)-2-pyridinyl)methyl)-1,3-dihydrofuro[3,4-c]quinoline-8-carboxamide] | 3.79 | 0.152
CCN(Cc1ccc(C(F)(F)F)cn1)C(=O)c1cc2c3c(c(N)nc2cc1Cl)COC3 [Example 420, 4-amino-7-chloro-N-ethyl-N-((5-(trifluoromethyl)-2-pyridinyl)methyl)-1,3-dihydrofuro[3,4-c]quinoline-8-carboxamide] | 8.36 | 0.248
CCN(Cc1ccc(Cl)cn1)C(=O)c1ccc2nc(N)c3c(c2c1)CO[C@@H]3C [Example 421, (3R)-4-amino-N-((5-chloro-2-pyridinyl)methyl)-N-ethyl-3-methyl-1,3-dihydrofuro[3,4-c]quinoline-8-carboxamide] | 10 | 0.116
CCN(Cc1ccc(C(F)(F)F)cn1)C(=O)c1ccc2nc(N)c3c(cnn3C)c2c1 [Example 422, 4-amino-N-ethyl-3-methyl-N-((5-(trifluoromethyl)-2-pyridinyl)methyl)-3H-pyrazolo[3,4-c]quinoline-8-carboxamide] | 10.7 | 6.74
CC(C)N(Cc1ccc(Cl)cn1)C(=O)c1ccc2nc(N)c3c(c2c1)CO[C@@H]3C [Example 423, (3R)-4-amino-N-((5-chloro-2-pyridinyl)methyl)-3-methyl-N-(2-propanyl)-1,3-dihydrofuro[3,4-c]quinoline-8-carboxamide] | 3.98 | 0.064
C[C@H]1OCc2c1c(N)nc1cnc(C(=O)N(Cc3ccc(OC(F)F)nn3)CC3CC3)cc21 [Example 424, (3R)-4-amino-N-(cyclopropylmethyl)-N-((6-(difluoromethoxy)-3-pyridazinyl)methyl)-3-methyl-1,3-dihydrofuro[3,4-c][1,7]naphthyridine-8-carboxamide] | 1.34 | 0.032
C[C@@H]1OCc2c1c(N)nc1cnc(C(=O)N(Cc3ccc(OC(F)F)nn3)CC3CC3)cc21 [Example 425, (3S)-4-amino-N-(cyclopropylmethyl)-N-((6-(difluoromethoxy)-3-pyridazinyl)methyl)-3-methyl-1,3-dihydrofuro[3,4-c][1,7]naphthyridine-8-carboxamide] | > 50 | 2.71
Nc1nc2ccc(C(=O)N(Cc3ccc(OC(F)F)nn3)CC3CC3)cc2c2c1COC2 [Example 426, 4-amino-N-(cyclopropylmethyl)-N-((6-(difluoromethoxy)-3-pyridazinyl)methyl)-1,3-dihydrofuro[3,4-c]quinoline-8-carboxamide] | 4.22 | 0.096
